Test results: patent US8691855B2, “Compounds, isomer thereof, or pharmaceutically acceptable salts thereof as vanilloid receptor antagonist and pharmaceutical compositions containing the same” (Amorepacific Corporation, priority 2008, dated 2014)

Target: T1, vanilloid receptor (Rattus norvegicus, UniProt O35433)
T1 construct: DRG nerve cells from the primary culture of 2 days were equilibrated; endogenous in cells; host or cells: primary culture of dorsal root ganglion neurons from neonatal SD rats
T1 sequence (O35433 whole entry): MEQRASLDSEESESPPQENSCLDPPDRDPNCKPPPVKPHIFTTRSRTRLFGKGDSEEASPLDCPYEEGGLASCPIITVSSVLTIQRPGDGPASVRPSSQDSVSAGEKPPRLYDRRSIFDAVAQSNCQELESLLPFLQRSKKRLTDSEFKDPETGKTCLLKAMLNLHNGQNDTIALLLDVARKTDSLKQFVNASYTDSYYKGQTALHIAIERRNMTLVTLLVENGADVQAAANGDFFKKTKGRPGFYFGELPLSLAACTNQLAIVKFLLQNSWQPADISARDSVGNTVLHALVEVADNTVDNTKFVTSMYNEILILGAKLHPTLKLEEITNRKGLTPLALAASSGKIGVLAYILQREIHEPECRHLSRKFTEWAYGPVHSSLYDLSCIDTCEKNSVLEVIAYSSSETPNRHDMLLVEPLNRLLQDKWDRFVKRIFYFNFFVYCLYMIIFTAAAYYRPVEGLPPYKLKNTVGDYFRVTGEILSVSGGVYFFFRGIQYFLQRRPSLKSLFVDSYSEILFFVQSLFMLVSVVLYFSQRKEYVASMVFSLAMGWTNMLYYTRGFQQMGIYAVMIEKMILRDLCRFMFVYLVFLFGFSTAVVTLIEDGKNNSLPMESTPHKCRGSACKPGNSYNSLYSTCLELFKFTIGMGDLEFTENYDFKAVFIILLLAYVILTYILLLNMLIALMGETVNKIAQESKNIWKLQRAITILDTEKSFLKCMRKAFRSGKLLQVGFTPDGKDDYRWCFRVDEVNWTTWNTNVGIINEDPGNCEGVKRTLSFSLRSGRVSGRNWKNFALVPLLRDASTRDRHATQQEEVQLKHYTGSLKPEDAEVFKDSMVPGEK
Assay: 45Ca influx test (antagonist calcium uptake test) in rat DRG neurons stimulated with capsaicin
Type: cell-based
Details: neonatal SD rat DRG neurons, capsaicin 0.5 μM; for IC50: 45Ca
Method: 1) Separation of spinal dorsal root ganglia (DRG) in newborn rats and primary culture thereof
Neonatal (2-3 clay old or younger than 2-3 day old) SD rats were put in ice for 5 minutes to anesthetize and disinfected with 70% ethanol. DRG of all part of spinal cord were dissected (Wood et al., 1988, J. Neurosci. 8, pp 3208-3220) and collected in DME/F12 medium to which 1.2 g/l sodium bicarbonate and 50 mg/l gentamycin were added. The DRG were incubated sequentially at 37° C. for 30 mins in 200 U/ml collagenase and 2.5 mg/ml trypsin, separately. The ganglia were washed twice with DME/F12 medium supplemented with 10% horse serum, triturated through a fire-polished Pasteur pipette, filtered through Nitex 80 membrane to obtain single cell suspension and the suspension was washed once more. This was subjected to centrifugation, then resuspended in cell culture medium at certain level of cell density. As the cell culture medium, DME/F12 medium supplemented with 10% horse serum was diluted with identical medium conditioned by C6 glioma cells 2 clays on a confluent monolayer (1:1), and NGF (Nerve Growth Factor) was added to adjust 200 ng/ml as final concentration. After the cells were grown 2 days in medium where cytosine arabinoside (Ara-C, 100 μM) was added to kill dividing nonneuronal cells, medium was changed to one without Ara-C. The resuspended cells were plated at a density of 1500-2000 neurons/well onto Terasaki plates previously coated with 10 μg/ml poly-D-ornithine.
2) ^45Ca Influx Experiments
DRG nerve cells from the primary culture of 2 days were equilibrated by washing 4 times with HEPES (10 mM, pH 7.4)-buffered Ca^2+, Mg^2+-free HBSS (H-HBSS). The solution in each well was removed from the individual well. Medium containing the test compound plus capsaicin (final concentration 0.5 μM) and ^45Ca (final concentration 10 μCi/ml) in H-HBSS was added to each well and incubated at room temperature for 10 nuns. Terasaki plates were washed five times with H-HBSS and dried at room temperature. To each well, 0.3% SDS (10 μl) was added to elute ^45Ca. After the addition of scintillation cocktail of into each well, the amount of ^45Ca influx into neuron was measured by counting radioactivity. Antagonistic activities of test compounds against vanilloid receptor were calculated as percent of the inhibition of maximal response of capsaicin at a concentration of 0.5 μM.

| Structure (SMILES) | IC50 [µM] | further results |
| --- | --- | --- |
| CC(C)(C)c1ccc(-c2ccc(C(=O)NCc3cc(F)c(NS(C)(=O)=O)c(F)c3)s2)cc1 [Example 63, 5-(4-tert-Butyl-phenyl)-thiophene-2-carboxylic acid 3,5-difluoro-4-methanesulfonylamino-benzylamide] | > 10 | – |
| C[C@@H](NC(=O)c1coc(Oc2cc(C(F)(F)F)ccn2)n1)c1cc(F)c(NS(C)(=O)=O)c(F)c1 [Example 25, 2-(4-Trifluoromethyl-pyridin-2-yloxy)-oxazole-4-carboxylic acid [1-(3,5-difluoro-4-methanesulfonylamino-phenyl)-ethyl]-amide] | > 10 | – |
| CC(C)c1ccccc1Oc1nc(C(=O)N[C@H](C)c2cc(F)c(NS(C)(=O)=O)c(F)c2)co1 [Example 3, 2-(2-Isopropyl-phenoxy)-oxazole-4-carboxylic acid [1-(3,5-difluoro-4-methanesulfonylamino-phenyl)-ethyl]-amide] | 0.49 | – |
| C[C@@H](NC(=O)c1coc(Oc2ccc3ncccc3c2)n1)c1cc(F)c(NS(C)(=O)=O)c(F)c1 [Example 23, 2-(Quinolin-6-yloxy)-oxazole-4-carboxylic acid [1-(3,5-difluoro-4-methanesulfonylamino-phenyl)-ethyl]-amide] | 11.9 | – |
| C=C1CCc2c(Oc3nc(C(=O)N[C@H](C)c4cc(F)c(NS(C)(=O)=O)c(F)c4)co3)cccc21 [Example 28, 2-(1-Methylene-indan-4-yloxy)-oxazole-4-carboxylic acid [1-(3,5-difluoro-4-methanesulfonylamino-phenyl)-ethyl]-amide] | 0.82 | – |
| CC(C)c1cccc(-c2ccc(C(=O)N[C@H](C)c3cc(F)c(NS(C)(=O)=O)c(F)c3)s2)c1 [Example 72, 5-(3-Isopropyl-phenyl)-thiophene-2-carboxylic acid [1-(3,5-difluoro-4-methanesulfonylamino-phenyl)-ethyl]-amide] | 1.4 | – |
| C=C(C)c1cc(Oc2nc(C(=O)N[C@H](C)c3cc(F)c(NS(C)(=O)=O)c(F)c3)co2)cc(C(F)(F)F)c1 [Example 43, 2-(3-Isopropenyl-5-trifluoromethyl-phenoxy)-oxazole-4-carboxylic acid [1-(3,5-difluoro-4-methanesulfonylamino-phenyl)-ethyl]-amide] | 0.96 | – |
| C[C@@H](NC(=O)c1coc(N2CCCC3CCCCC32)n1)c1cc(F)c(NS(C)(=O)=O)c(F)c1 (some centres unmarked) [Example 19, 2-(Octahydro-quinolin-1-yl)-oxazole-4-carboxylic acid [1-(3,5-difluoro-4-methanesulfonylamino-phenyl)-ethyl]-amide] | 0.61 | – |
| C[C@@H](NC(=O)c1coc(Oc2ccc(C(C)(C)C)cc2)n1)c1cc(F)c(NS(C)(=O)=O)c(F)c1 [Example 7, 2-(4-tert-Butyl-phenoxy)-oxazole-4-carboxylic acid [1-(3,5-difluoro-4-methanesulfonylamino-phenyl)-ethyl]-amide] | 4.3 | – |
| CC(C)c1cccc(Oc2ccc(C(=O)N[C@H](C)c3cc(F)c(NS(C)(=O)=O)c(F)c3)s2)c1 [Example 21, 5-(3-Isopropyl-phenoxy)-thiophene-2-carboxylic acid [1-(3,5-difluoro-4-methanesulfonylamino-phenyl)-ethyl]-amide] | – | inhibition at 10 µM (DRG neuron, @10 μM, read-out: Antagonist Calcium Uptake Test, percent inhibition of capsaicin response): 56% |
| CC(C)c1cc(Oc2nc(C(=O)N[C@H](C)c3cc(F)c(NS(C)(=O)=O)c(F)c3)co2)cc(C(F)(F)F)c1 [Example 40, 2-(3-Isopropyl-5-trifluoromethyl-phenoxy)-oxazole-4-carboxylic acid [1-(3,5-difluoro-4-methanesulfonylamino-phenyl)-ethyl]-amide] | 1.1 | – |
| CS(=O)(=O)Nc1c(F)cc(CNC(=O)c2ccc(-c3ccc(C(F)(F)F)cc3)s2)cc1F [Example 60, 5-(4-Trifluoromethyl-phenyl)-thiophene-2-carboxylic acid 3,5-difluoro-4-methanesulfonylamino-benzylamide] | 6.1 | – |
| COc1cccc(-c2nc(C(=O)N[C@H](C)c3cc(F)c(NS(C)(=O)=O)c(F)c3)co2)c1 (stereo in doubt) [Example 68, 2-(3-Methoxy-phenyl)-oxazole-4-carboxylic acid [1-(3,5-difluoro-4-methanesulfonylamino-phenyl)-ethyl]-amide] | 1.7 | – |
| C[C@@H](NC(=O)c1coc(-c2cccc(-c3ccccc3)c2)n1)c1cc(F)c(NS(C)(=O)=O)c(F)c1 [Example 70, 2-Biphenyl-3-yl-oxazole-4-carboxylic acid [1-(3,5-difluoro-4-methanesulfonylamino-phenyl)-ethyl]-amide] | 0.87 | – |
| C[C@@H](NC(=O)c1coc(Oc2cc(C(F)(F)F)ccc2C2CC2)n1)c1cc(F)c(NS(C)(=O)=O)c(F)c1 [Example 54, 2-(2-Cyclopropyl-5-trifluoromethyl-phenoxy)-oxazole-4-carboxylic acid [1-(3,5-difluoro-4-methanesulfonylamino-phenyl)-ethyl]-amide] | 2.9 | – |
| C[C@@H](NC(=O)c1coc(-c2ccc(C(F)(F)F)cc2)n1)c1cc(F)c(NS(C)(=O)=O)c(F)c1 [Example 74, 2-(4-Trifluoromethyl-phenyl)-oxazole-4-carboxylic acid [1-(3,5-difluoro-4-methanesulfonylamino-phenyl)-ethyl]-amide] | – | inhibition at 3 µM (DRG neuron, @3 μM, read-out: Antagonist Calcium Uptake Test, percent inhibition of capsaicin response): 89% |

The next lines start with results.

| IC50 [µM] | Structure (SMILES) | further results |
| --- | --- | --- |
| 0.33 | CS(=O)(=O)Nc1c(F)cc(CNC(=O)c2ccc(-c3cccc(C(F)(F)F)c3)o2)cc1C#N [Example 121, 5-(3-Trifluoromethyl-phenyl)-furan-2-carboxylic acid 3-cyano-5-fluoro-4-methanesulfonylamino-benzylamide] | – |
| 0.49 | C[C@@H](NC(=O)c1cnc(-c2cc(C(F)(F)F)cc(C(F)(F)F)c2)s1)c1cc(F)c(NS(C)(=O)=O)c(F)c1 [Example 126, 2-(3,5-Bis-trifluoromethyl-phenyl)-thiazole-5-carboxylic acid [1-(3,5-difluoro-4-methanesulfonylamino-phenyl)-ethyl]-amide] | – |
| 0.22 | Cc1cc(CNC(=O)c2ccc(-c3cccc(C(F)(F)F)c3)o2)ccc1NS(C)(=O)=O [Example 112, 5-(3-Trifluoromethyl-phenyl)-furan-2-carboxylic acid 4-methanesulfonylamino-3-methyl-benzylamide] | – |
| 10.5 | C[C@@H](NC(=O)c1ccc(-c2cccc(C(F)(F)F)c2)s1)c1cc(F)c(NS(C)(=O)=O)c(F)c1 (stereo in doubt) [Example 73, 5-(3-Trifluoromethyl-phenyl)-thiophene-2-carboxylic acid [1-(3,5-difluoro-4-methanesulfonylamino-phenyl)-ethyl]-amide] | – |
| 8.8 | CS(=O)(=O)Nc1ccc(CNC(=O)c2cnc(-c3ccc(C(F)(F)F)cc3)s2)cc1F [Example 122, 2-(4-Trifluoromethyl-phenyl)-thiazole-5-carboxylic acid 3-fluoro-4-methanesulfonylamino-benzylamide] | – |
| 0.27 | C[C@H](NC(=O)c1ccc(-c2cccc(C(F)(F)F)c2)o1)c1cc(F)c(NS(C)(=O)=O)c(F)c1 [Example 109, (S)-5-(3-Trifluoromethyl-phenyl)-furan-2-carboxylic acid [1-(3,5-difluoro-4-methanesulfonylamino-phenyl)-ethyl]-amide] | – |
| 0.62 | CS(=O)(=O)Nc1c(F)cc(CNC(=O)c2ccc(-c3cccc(C(F)(F)F)c3)o2)cc1F [Example 110, 5-(3-Trifluoromethyl-phenyl)-furan-2-carboxylic acid 3,5-difluoro-4-methanesulfonylamino-benzylamide] | – |
